Laboratory results reported in patent US7989420B2, “Smooth muscle relaxation” (New York Medical College, priority 2006, dated 2011).

Experiments:
[1] = tested on: bovine pulmonary arteries (BPA); test: Heme content of BPA homogenates (QuantiChrom heme assay); type: cell-based; details: organ culture with 100 μM ALA and/or 100 μM Fe
Procedure: Heme was quantified in BPA homogenates using a QuantiChrom heme assay kit purchased from BioAssay Systems, and changes in absorbance were measured in a BIOTEK scanning microplate spectrophotometer. Briefly, segments were homogenized in 20 mM MOPS+sucrose buffer and diluted to approximately 5 mg protein/ml. Homogenates were centrifuged at 2000×g for 5 min, and 50 μl of supernatant obtained were assayed for their heme content based on the manufacture's instructions, employing measurements of changes in absorbance at 400 nm. The protein content of the supernatant was measured with Biorad protein assay kit, and tissue heme levels were reported as nanomoles/mg protein.

aorta = test: Contraction to PDBu of aorta from rats treated with ALA in vivo; design: species or system rat; details: single dose 60 mg/kg ALA i.p., 24 hours after treatment
Procedure: The rats were pretreated with 60 mg/kg ALA or with a saline vehicle (i.p.). After 24 hours they were anesthetized with 50 mg/kg sodium pentobarbital and the aorta was removed for in vitro studies. Isolated aortic rings were studied for changes in protoporphyrin IX fluorescence and force under the same conditions similar to those used for bovine pulmonary arteries described above, except that 1 gram of passive force was used.

[2] = humans, factor which limited the doses of ALA, reference (13); cited from earlier work

## NCC(=O)CCC(=O)O [ALA, δ-aminolevulinic acid]
[1]
  BPA heme levels: did not reach statistical significance
aorta
  contraction of aorta to 10 μM PDBu: decreased contraction
[2]
  systemic and pulmonary artery pressure: reduction in systemic and pulmonary artery pressure
